One compound from PubChem BioAssay AID489016 (The Scripps Research Institute Molecular Screening Center, 2010) can be followed below.

The experiment deals with P. falciparum 3D7 in RBCs, 3H-hypoxanthine incorporation, 48 h. Briefly: antimalarial potency in infected red cells – cell-based, radiolabel, RBCs, powder sample, late stage, M17LAP inhibitor project, dose response (AID 489016).

SMILES strings stand for the structures.

Turning to `CCCCOc1ccc(CC(=O)NO)cc1`, the IC50 (usually the concentration that inhibits the measured activity by half) was 1.7 µM.
